Among the data in US11267826B2, “Penicillin-binding protein inhibitors” (priority 2017, dated 2022) are MIC values, retold here.

The test system of assay [1] is S. aureus ATCC 29213. The experiment in a line: Broth microdilution MIC assay, S. aureus. The conditions noted are these: Staphylococcus aureus, ATCC29213; broth microdilution, 16-20 hours at 37° C.; read-out: S. aureus 29213 MIC. It counts as cell-based. A digest of the protocol:
(§1)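 Visual no-growth endpoint defines the MIC. Inoculum of 5×10^5 CFU/mL in divalent-cation-supplemented Mueller-Hinton broth was exposed to 2-fold dilution series of compound, then incubated 16-20 hours at 37° C per CLSI.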
(In general: Broth dilution looks for growth in wells or tubes with falling amounts of substance.)

The subject of assay [2] is hyper-permeable E. coli 901C. Description: Broth microdilution MIC assay, hyper-permeable E. coli. The assay is classed as cell-based. The conditions noted are these: Escherichia coli, read-out: E. coli 901C MIC. A digest of the protocol: as §1

Structures are written as SMILES.

The MIC is the smallest concentration in the dilution series that meets the test's criterion for growth inhibition.

As to `O=C(N[C@H]1Cc2cccc(C(=O)O)c2OB1O)/C(=N\O)c1csc(NCCF)n1` [Example 101, (R,Z)-3-(2-(2-((2-fluoroethyl)amino)thiazol-4-yl)-2-(hydroxyimino)acetamido)-2-hydroxy-3,4-dihydro-2H-benzo[e][1,2]oxaborinine-8-carboxylic Acid], the MIC was over 128 µg/mL in assay [1] and 64 to 128 µg/mL in assay [2].

For the compound `CC(=O)NCCO/N=C(\C(=O)N[C@H]1Cc2cccc(C(=O)O)c2OB1O)c1csc(N)n1` [Example 119, (R,Z)-3-(2-((2-acetamidoethoxy)imino)-2-(2-aminothiazol-4-yl)acetamido)-2-hydroxy-3,4-dihydro-2H-benzo[e][1,2]oxaborinine-8-carboxylic Acid], the minimum inhibitory concentration (MIC) in assay [1] is over 128 µg/mL; in assay [2], 64 to 128 µg/mL.

Take `Nc1cc(/C(=N\O)C(=O)N[C@H]2Cc3cccc(C(=O)O)c3OB2O)ccn1` [Example 15, (R,E)-3-(2-(2-aminopyridin-4-yl)-2-(hydroxyimino)acetamido)-2-hydroxy-3,4-dihydro-2H-benzo[e][1,2]oxaborinine-8-carboxylic Acid]: the minimum inhibitory concentration (MIC) in assay [1] is 64 to 128 µg/mL; in assay [2] it was over 128 µg/mL.

On to `COc1cc2c(c(C(=O)O)c1)OB(O)[C@@H](NC(=O)/C(=N\OC(C)(C)C(N)=O)c1csc(N)n1)C2` [Example 81, (R,Z)-3-(2-(((1-amino-2-methyl-1-oxopropan-2-yl)oxy)imino)-2-(2-aminothiazol-4-yl)acetamido)-2-hydroxy-6-methoxy-3,4-dihydro-2H-benzo[e][1,2]oxaborinine-8-carboxylic Acid], for which the minimum inhibitory concentration (MIC) was over 128 µg/mL in assay [1] and under 64 µg/mL in assay [2].

On to `O=C(N[C@H]1Cc2cccc(C(=O)O)c2OB1O)/C(=N\O)c1csc(NCc2ccccn2)n1` [Example 121, (R,Z)-2-hydroxy-3-(2-(hydroxyimino)-2-(2-((pyridin-2-ylmethyl)amino)thiazol-4-yl)acetamido)-3,4-dihydro-2H-benzo[e][1,2]oxaborinine-8-carboxylic Acid], for which the minimal inhibitory concentration (MIC) is under 64 µg/mL in assay [1] and over 128 µg/mL in assay [2].

For the compound `Nc1ncc(C(=NO)C(=O)N[C@H]2Cc3cccc(C(=O)O)c3OB2O)s1` (stereo in doubt) [Example 96, (R,E)-3-(2-(2-aminothiazol-5-yl)-2-(hydroxyimino)acetamido)-2-hydroxy-3,4-dihydro-2H-benzo[e][1,2]oxaborinine-8-carboxylic Acid], the minimal inhibitory concentration (MIC) in assay [1] is 64 to 128 µg/mL; in assay [2], over 128 µg/mL.

For `Nc1nc(C(=CCCO)C(=O)N[C@H]2Cc3cccc(C(=O)O)c3OB2O)cs1` [Example 85, (R)-3-(2-(2-aminothiazol-4-yl)-5-hydroxypent-2-enamido)-2-hydroxy-3,4-dihydro-2H-benzo[e][1,2]oxaborinine-8-carboxylic Acid], the minimum inhibitory concentration (MIC) in assay [1] and in assay [2] was 64 to 128 µg/mL each time.

Take `Nc1nc(/C(=N/O)C(=O)N[C@H]2Cc3cc(CN4CCCC4)cc(C(=O)O)c3OB2O)cs1` [Example 33, (R,Z)-3-(2-(2-aminothiazol-4-yl)-2-(hydroxyimino)acetamido)-2-hydroxy-6-(pyrrolidin-1-ylmethyl)-3,4-dihydro-2H-benzo[e][1,2]oxaborinine-8-carboxylic Acid]: the MIC was under 64 µg/mL in assay [1] and over 128 µg/mL in assay [2].

With `CO/N=C(\C(=O)N[C@H]1Cc2cccc(C(=O)O)c2OB1O)c1ccc2c(c1)CNC2` [Example 5, (R,Z)-2-hydroxy-3-(2-(isoindolin-5-yl)-2-(methoxyimino)acetamido)-3,4-dihydro-2H-benzo[e][1,2]oxaborinine-8-carboxylic Acid], the minimum inhibitory concentration (MIC) in assay [1] and in assay [2] was over 128 µg/mL in each case.

Take `CNc1nc(/C(=N/O)C(=O)N(C)[C@H]2Cc3cccc(C(=O)O)c3OB2O)cs1` [Example 22, (R,Z)-2-hydroxy-3-(2-(hydroxyimino)-N-methyl-2-(2-(methylamino)thiazol-4-yl)acetamido)-3,4-dihydro-2H-benzo[e][1,2]oxaborinine-8-carboxylic Acid]: the MIC in assay [1] and in assay [2] was over 128 µg/mL each time.

On to `NC(=O)CNc1nc(/C(=N/O)C(=O)N[C@H]2Cc3cccc(C(=O)O)c3OB2O)cs1` [Example 109, (R,Z)-3-(2-(2-((2-amino-2-oxoethyl)amino)thiazol-4-yl)-2-(hydroxyimino)acetamido)-2-hydroxy-3,4-dihydro-2H-benzo[e][1,2]oxaborinine-8-carboxylic Acid], for which the MIC in assay [1] and in assay [2] was over 128 µg/mL in each case.

In the case of `NCCON=C(C(=O)N[C@H]1Cc2cccc(C(=O)O)c2OB1O)c1nnn[nH]1` [Example 110, (R)-3-(2-((2-aminoethoxy)imino)-2-(1H-tetrazol-5-yl)acetamido)-2-hydroxy-3,4-dihydro-2H-benzo[e][1,2]oxaborinine-8-carboxylic Acid], the MIC in assay [1] and in assay [2] was over 128 µg/mL throughout.

For the compound `CC(C)(O/N=C(\C(=O)N[C@H]1Cc2cc(O)cc(C(=O)O)c2OB1O)c1csc(N)n1)C(=O)O` [Example 80, (R,Z)-3-(2-(2-aminothiazol-4-yl)-2-(((2-carboxypropan-2-yl)oxy)imino)acetamido)-2,6-dihydroxy-3,4-dihydro-2H-benzo[e][1,2]oxaborinine-8-carboxylic Acid], the minimum inhibitory concentration (MIC) in assay [1] was over 128 µg/mL; in assay [2], under 64 µg/mL.

Consider `Nc1nc(/C(=C\c2cccnc2)C(=O)N[C@H]2Cc3cccc(C(=O)O)c3OB2O)cs1` [Example 86, (R,E)-3-(2-(2-aminothiazol-4-yl)-3-(pyridin-3-yl)acrylamido)-2-hydroxy-3,4-dihydro-2H-benzo[e][1,2]oxaborinine-8-carboxylic Acid], for which the values for the MIC in assay [1] and in assay [2] were 64 to 128 µg/mL and under 64 µg/mL, respectively.

As to `CS(=O)(=O)NCCO/N=C(\C(=O)N[C@H]1Cc2cccc(C(=O)O)c2OB1O)c1csc(N)n1` [Example 120, (R,Z)-3-(2-(2-aminothiazol-4-yl)-2-((2-(methylsulfonamido)ethoxy)imino)acetamido)-2-hydroxy-3,4-dihydro-2H-benzo[e][1,2]oxaborinine-8-carboxylic Acid], the MIC in assay [1] is over 128 µg/mL; in assay [2], 64 to 128 µg/mL.

For `COc1ccc(CSc2nc(/C(=N/O)C(=O)N[C@H]3Cc4cccc(C(=O)O)c4OB3O)cs2)cc1` [Example 92, (R,Z)-2-hydroxy-3-(2-(hydroxyimino)-2-(2-((4-methoxybenzyl)thio)thiazol-4-yl)acetamido)-3,4-dihydro-2H-benzo[e][1,2]oxaborinine-8-carboxylic Acid], the MIC in assay [1] is under 64 µg/mL; in assay [2] it was over 128 µg/mL.

Turning to `NCCN(CCN)c1nc(/C(=N/O)C(=O)N[C@H]2Cc3cccc(C(=O)O)c3OB2O)cs1` [Example 94, (R,Z)-3-(2-(2-(bis(2-aminoethyl)amino)thiazol-4-yl)-2-(hydroxyimino)acetamido)-2-hydroxy-3,4-dihydro-2H-benzo[e][1,2]oxaborinine-8-carboxylic Acid], the MIC in assay [1] is under 64 µg/mL; in assay [2] it was over 128 µg/mL.

Regarding `O=C(O)CNc1nc(/C(=N/O)C(=O)N[C@H]2Cc3cccc(C(=O)O)c3OB2O)cs1` [Example 108, (R,Z)-3-(2-(2-((carboxymethyl)amino)thiazol-4-yl)-2-(hydroxyimino)acetamido)-2-hydroxy-3,4-dihydro-2H-benzo[e][1,2]oxaborinine-8-carboxylic Acid], the MIC in assay [1] and in assay [2] was over 128 µg/mL throughout.
